Here are results for 1 molecule from US20200399250A1, “Pyrimidine Derivatives as Tropomyosin Receptor Kinase A (TRKA) Inhibitors” (BIOMED X GMBH, priority 2017, published 2020).

The target in data set [1] is T1, AurA (Homo sapiens, UniProt O14965).
T1 sequence (O14965 1-403): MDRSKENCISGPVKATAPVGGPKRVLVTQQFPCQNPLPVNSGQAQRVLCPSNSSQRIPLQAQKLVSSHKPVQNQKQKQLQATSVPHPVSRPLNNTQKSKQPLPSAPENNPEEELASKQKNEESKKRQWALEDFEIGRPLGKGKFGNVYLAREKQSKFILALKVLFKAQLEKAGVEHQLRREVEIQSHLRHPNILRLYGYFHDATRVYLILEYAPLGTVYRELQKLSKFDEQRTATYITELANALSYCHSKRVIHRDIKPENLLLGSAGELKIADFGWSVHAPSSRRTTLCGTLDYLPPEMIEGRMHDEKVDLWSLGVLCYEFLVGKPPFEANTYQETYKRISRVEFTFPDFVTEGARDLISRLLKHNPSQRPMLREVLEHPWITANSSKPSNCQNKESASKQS
The experiment in a line: KdELECT Kd measurement (KINOMEscan), AurA. Type of data set: binding. On the procedure: (§1) Kd measurements were done via the KdELECT product service from DiscoverX Corporation (Freemont, Calif., USA) which also employs the KINOMEscan technology. Here, inhibitor binding constants (Kd values) are calculated from duplicate 11-point dose-response curves.

The target of data set [2] is T2, TrkA (Homo sapiens, UniProt P04629). The experiment in a line: KINOMEscan primary screen against TrkA. Type of data set: binding. The settings on record: % of control. Here is the method: Compounds were initially tested in a primary screen against TrkA (at 10 and 100 nM) and AurA (at 100 nM and 1 μM) using the KINOMEscan technology from DiscoverX Corporation, Fremont, Calif., USA (https://www.discoverx.com/services/drug-discovery-development-services/kinase-profiling/kinomescan).
Results were reported as % of control (% Ctrl.=(test compound signal−positive control signal)/(DMSO signal−positive control signal). KINOMEscan is an active site-directed competition binding assay that quantitatively measures the ability of a compound to compete with an immobilized, active-site directed ligand.

Data set [3] deals with C57Bl/6 mice. The experiment in a line: Toxicity after i.v. injection in mice. Particulars: for Toxicity: single animal. In kind it is in vivo. Here is the method: . Dimethylsulfoxide (DMSO) from J. T. Baker (Germany), Cremophor EL (Polyoxyethyleneglycerol triricinoleate 35 castor oil) from BASF (Germany), and Saline solution 0.9% from B. Braun (Germany) were used in this study. Two types of formulations were prepared: a formulation with a high dose of compound a1 (9 mM) and a formulation with a low dose of compound a1 (1.8 mM); c.f. Tables 5 and 6. […]. The formulation with the high dose of a1 was prepared using 9% a1-DMSO stock solution, 10% Cremophor EL, and 81% saline. The formulation with the low dose of a1 contained 1.8% a1-DMSO stock solution, 5% Cremophor EL, and 93.2% saline; c.f. FIG. 2.
Experiments were carried out in accordance with the EU Directive 86/609/EEC on the protection of animals used for scientific purposes. […]; c.f. Table 6. After injection, the mice were returned to their home cages, and after 1 hour, the mice were anaesthetized with isoflurane. Terminal blood samples were collected using a 1 ml syringe (20-G needle, B. Braun). The blood was immediately transferred into a 1.3 ml heparin-coated tube (Sarstedt). Plasma was collected by centrifugation at 1500 g for 15 minutes. The supernatant was placed in a 1.5 ml tube on dry ice and stored at −20° C.

Data set [4] has as its target T2, TrkA. The experiment in a line: KdELECT Kd measurement (KINOMEscan), TrkA. Type of data set: binding. Here is the method: as §1
Data set [5] concerns the target TrkA. The experiment in a line: KdELECT Kd measurement (KINOMEscan), TrkA. Type of data set: binding. Here is the method: as §1
Data set [6] addresses full-length human TrkA receptor (Homo sapiens, UniProt P04629). The experiment in a line: PathHunter cellular functional assay, antagonism of β-NGF. Type of data set: cell-based. The settings on record: antagonism at EC80 (0.03 μg/ml) of β-NGF; read-out: Cellular assay [RC50]. The text has this: The two compounds a1 and b7 were additionally tested in a functional assay using the PathHunter® technology (DiscoverX Corporation, Freemont, Calif., USA; https://www.discoverx.com/technologies-platforms/enzyme-fragment-complementation-technoloqy/cell-based-efc-assays/protein-protein-interactions/kinases-cell-based-(rtk-ctk)). In this assay, the full-length human TrkA receptor (i.e. including ligand-binding and kinase domains) is expressed as a C-terminal (intracellular) fusion with a small peptide epitope, called Prolink™ (PK). Furthermore, a SH2 domain containing protein (i.e. Shc1) is co-expressed with a larger Enzyme Acceptor (EA) fragment. Activation of the TrkA receptor by adding the agonist ligand (β-NGF), leads to the auto-phosphorylation of the kinase and subsequent binding of the Shc1-EA protein. That recruitment results in an active B-galactosidase enzyme that is detected by addition of a chemiluminescent substrate.
Compounds were tested for antagonism using EC80 concentration (i.e. 0.03 μg/ml) of β-NGF. Data was normalized to the maximal and minimal response observed in the presence of EC80 agonist ligand (3-NGF) and vehicle (DMSO, final concentration 1%), respectively.

The mark [7] stands for this setting: duplicate 11-point dose-response curves.

Entries after “also recorded” stand apart in the source; their conditions may differ.

T2 sequence (P04629 33-796): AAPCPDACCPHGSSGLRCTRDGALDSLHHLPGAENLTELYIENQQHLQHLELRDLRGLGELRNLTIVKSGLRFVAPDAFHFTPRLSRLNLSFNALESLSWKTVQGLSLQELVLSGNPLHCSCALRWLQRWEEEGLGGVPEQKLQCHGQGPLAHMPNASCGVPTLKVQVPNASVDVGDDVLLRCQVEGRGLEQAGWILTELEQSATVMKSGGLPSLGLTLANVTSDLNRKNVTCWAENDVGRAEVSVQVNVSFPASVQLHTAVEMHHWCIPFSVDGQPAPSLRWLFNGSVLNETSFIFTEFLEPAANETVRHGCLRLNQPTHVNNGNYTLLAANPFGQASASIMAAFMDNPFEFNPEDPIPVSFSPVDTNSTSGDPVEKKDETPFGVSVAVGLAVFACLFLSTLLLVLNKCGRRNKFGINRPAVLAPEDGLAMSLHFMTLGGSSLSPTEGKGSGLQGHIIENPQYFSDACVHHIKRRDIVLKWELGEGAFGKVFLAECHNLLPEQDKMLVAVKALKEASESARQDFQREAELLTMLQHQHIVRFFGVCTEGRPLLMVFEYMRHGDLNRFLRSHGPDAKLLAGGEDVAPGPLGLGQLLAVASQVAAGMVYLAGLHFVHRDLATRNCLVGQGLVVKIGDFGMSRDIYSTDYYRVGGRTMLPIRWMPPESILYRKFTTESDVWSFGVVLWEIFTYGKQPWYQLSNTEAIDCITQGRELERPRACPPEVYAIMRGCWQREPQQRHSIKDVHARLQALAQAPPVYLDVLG
Chain of full-length human TrkA receptor (P04629 33-796): as above
Chain of full-length human TrkA receptor (P01138 122-241 partner): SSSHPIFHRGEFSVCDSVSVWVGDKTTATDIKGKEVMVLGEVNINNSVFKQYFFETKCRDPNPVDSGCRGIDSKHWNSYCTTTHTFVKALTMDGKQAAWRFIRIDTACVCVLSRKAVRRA

In the case of `CN1CCN(c2cc(Nc3cc(-c4cccc(F)c4)[nH]n3)nc(Sc3ccccc3)n2)CC1` [a1, N-[5-(3-fluorophenyl)-1H-pyrazol-3-yl]-6-(4-methylpiperazin-1-yl)-2-(phenylsulfanyl)pyrimidin-4-amine], the “AurA [pKd]” value in data set [1] is recorded as 5.3. For the same molecule, the Kd in data set [1] (setting [7]) was determined as 4.5 µM; in data set [4] (setting [7]), 0.0026 µM. Besides, the “% Ctrl. TrkA @10 nM” value in data set [2] (10 nM compound) was 11 % Ctrl. Further, in data set [2] (100 nM compound), the “% Ctrl. TrkA @100 nM” value was determined as 1.9 % Ctrl. Further, the signs of toxicity result in data set [3] (5 and 25 mg/kg i.v., all animals) is recorded as “none of the animals showed any obvious signs of toxicity; also recorded: none of the animals showed any toxic sign”. For the same molecule, the Toxicity entry in data set [3] (a1_high formulation, 25 mg/kg i.v.) is listed as “None”; in data set [3] (a1_low formulation, 5 mg/kg i.v.), “None”. Also, the “TrkA [pKd]” value in data set [4] is reported as 8.6. The same molecule showed a ΔpKd in data set [5] (TrkA pKd versus AurA pKd) of 3.3. In addition, the “improved selectivity against off-target AurA” value in data set [5] (TrkA versus AurA) is given as 10,000 fold. The IC50 in data set [6] came out at 0.026 µM.

As a reminder, the Kd is a measure of binding affinity in units of concentration. Read a high Kd as weaker binding.
